Consider one molecule from US20190185339A1, “Zirconium-Based Cluster as a Dentin Tubule Occlusion Agent” (Colgate-Palmolive Company, priority 2017, published 2019).

For data set [1] the following is noted: solution of zirconium oxychloride which is effective as an antiperspirant; cited from earlier work.
A short description of data set [2]: Stability in terms of gelation and flocculation (clear or gel). The class given is physicochemical. As to conditions: 1% zirconium oxychloride with varied arginine; incubated 1 day at 50° C., cooled to room temperature. The protocol:
In some embodiments, the zirconium oxychloride cluster of the invention is stable at pH 2-6, 3-5, 3-4, 3.5-4.5 or 4-4.5, in solution, e.g., in aqueous solution.
(§1) Samples were prepared according to Table 1. Water was added to zirconium oxychloride (ZrOCl2.8H2O, MW 322.25) in a glass jar to yield a clear solution containing 1% zirconium oxychloride. Under stirring, L-arginine was slowly added to prevent clumping of arginine as well as large fluctuations in localized pH values. The solutions were incubated for 1 day at 50° C. Then the solutions were cooled to room temperature. Solid gel was formed in samples with the molar ratio of arginine to zirconium oxychloride of 2-4.
(§2) The zirconium oxychloride cluster was prepared as described in Example 1. The prepared zirconium oxychloride cluster was purified by gel permeability chromatograph (GPC). GPC column was prepared using Bio-Rad P2 gel with 5 μm particle size. Approximately 10 mL of prepared solution was filtered (0.45 μm) and loaded on the column using a HPLC pump at 0.2 mL/min. The mobile phase of the GPC chromatography was deionized water. Elution fractions were collected in intervals and monitored using SEC-RI. […] The pH of the GPC fraction (1160-1300 min) was 4.5. […] 10 g of this fraction was freeze dried to obtain purified powder for subsequent PXRD analysis.

A short description of data set [3]: pH of the zirconium oxychloride / arginine solutions. The class given is physicochemical. The method, then:
as §1
A 100 g batch was prepared according to Table 2. 1% w/w zirconium oxychloride (ZrOCl2.8H2O, MW 322.25) and arginine were mixed in aqueous solution with the molar ratio of arginine to zirconium oxychloride of 1:1.
as §2

For the molecule `[Cl-].[Cl-].[O]=[Zr+2]` [Zr, zirconium oxychloride (ZrOCl2.8H2O, MW 322.25)], in data set [1], the pH of solution result was “about 0.8”. For the same molecule, the “appearance (clear / gel)” value in data set [2] is given as “clear”. In addition, the pH in data set [3] (1% zirconium oxychloride with varied arginine, incubated 1 day at 50° C., cooled to room temperature) amounted to 1.39. The same molecule yielded a pH value in data set [3] (zirconium oxychloride alone, general statement) below 2.
